Test results published in patent US6380181B1, “Synthetic catechol derivatives, method for production and use thereof” (priority 1996, dated 2002).
Like-named read-outs stand apart in the source and are kept apart here.

Key:
Assay type in all cases: cell-based
[1] = tested on: Salmonella typhimurium TA 2700; note: test concentration or dose not given here
Text: (§1) In the indicator mutants, the synthesis of the respective siderophores, e.g. pyoverdin, pyochelin, enterobactin, aerobactin or yersiniabactin, or the biosynthesis of aromatic compounds, is blocked, or there is a lack of receptors for enterobactin, pyochelin or pyoverdin and for other important components for the bacterial transport of iron (e.g. the membrane proteins Cir, Fiu, FepA and TonB). Under conditions where there is a lack of iron, these mutants therefore cannot grow or can only grow to a very slight extent. In particular, the following indicator mutants were used: Pseudomonas aeruginosa PAO 6609, K 407, 690; E. coli AB 2847, Salmonella typhimurium enb-7, TA 270; Klebsiella pneumoniae KN 4401; Yersinia enterocolitica WAH; Proteus mirabilis 12 (wild); Proteus vulgaris 718 (wild) and Morganella morganii SBK3 (wild). […] The controls used were ferrioxamine E for the Pseudomonas strains, ferrioxamine G and enterobactin for the Salmonella strains, ferrichrome for the E. coli, Klebsiella and Y. enterocol. strains, and 3,4-dihydroxybenzylidene-2,4,6-trimethylaniline for Morganella morganii (see the above literature reference by R. Reissbrodt et al.).
(§2) The annotations + and (+) relate to non-specific promotion of growth.

[2] = tested on: Klebsiella pneumoniae KN 4401; conditions: Klebsiella KN 4401
Text: as §1, §2

[3] = tested on: Proteus vulgaris 718 (wild); conditions: Proteus vul. 718
Text: as §1, §2

E. coli AB 2847 = tested on: E. coli AB 2847; note: test concentration or dose not given here
Text: as §1, §2

[4] = tested on: Pseudomonas aeruginosa K 407; conditions: Pseudomonas aeruginosa K407
Text: as §1, §2

[5] = tested on: Pseudomonas aeruginosa PAO 6609
Text: as §1, §2

[6] = tested on: Morganella morganii SBK3 (wild)
Text: as §1, §2

[7] = tested on: Salmonella typhimurium enb-7; note: test concentration or dose not given here
Text: as §1, §2

[8] = tested on: Proteus mirabilis 12 (wild); conditions: Proteus mir. 12
Text: as §1, §2

[9] = tested on: Pseudomonas aeruginosa 690; note: test concentration or dose not given here
Text: as §1, §2

Structure (SMILES) | Growth areas of siderophore indicator strains (diameter) [1] [mm] | Growth areas of siderophore indicator strains (diameter) [2] [mm] | Growth areas of siderophore indicator strains (diameter) [3] [mm] | Growth areas of siderophore indicator strains (diameter) (E. coli AB 2847) [mm] | Growth areas of siderophore indicator strains (diameter) [4] [mm] | Growth areas of siderophore indicator strains (diameter) [5] [mm] | Growth areas of siderophore indicator strains (diameter) ([6]; M. morg. SBK 3) [mm] | Growth areas of siderophore indicator strains (diameter) [7] [mm] | Growth areas of siderophore indicator strains (diameter) [8] [mm] | Growth areas of siderophore indicator strains (diameter) [9] [mm] | Growth areas of siderophore indicator strains (diameter) [6] [mm]
COC(=O)Oc1ccc(C=Nc2cccc(C(=O)O)c2)cc1OC(=O)OC [Substance 1, 3-[3,4-di(Methoxycarbonyloxy)-benzylideneamino]-benzoic Acid] | 0 | 0 | 35 | 0 | 16 | 20 | 35 | 35 | 26 | 23 | –
COC(=O)Oc1ccc(C=Nc2cc(C(=O)O)ccc2O)cc1OC(=O)OC [Substance 2, 3-[3 ,4-di(Methoxycarbonyloxy)-benzylideneamino]4-hydroxybenzoic Acid] | 0 | 35 | 25 | 0 | 18 | 17 | 20 | 30 | 16 | 17 | –
COC(=O)Oc1ccc(C=Nc2cc(N=Cc3ccc(OC(=O)OC)c(OC(=O)OC)c3)cc(C(=O)O)c2)cc1OC(=O)OC [Substance 4, 3,5-Bis-[3,4-di(methoxycarbonyloxy)-benzylideneamino]-benzoic Acid] | 0 | 33 | 24 | 18 | 18 | 17 | 27 | 34 | 23 | 18 | –
O=C(O)C(=NNC(=O)c1ccc(O)c(O)c1)c1ccccc1 [Substance 9, [(3,4-Dihydroxybenzoyl)-hydrazono]-phenylacetic Acid] | 0 | 27 | – | 0 | – | – | – | 0 | 9 | 10 | –
CC(=O)Oc1cccc(C(=O)Nc2ccccc2C(=O)O)c1OC(C)=O [Substance 16, 2-(2,3-Diacetoxy-benzoylamino)-benzoic Acid] | 10 | – | – | 24 | 20 | 20 | – | 25 | – | 20 | –
CC(=O)Oc1cccc(C(=O)Nc2ccc(C(=O)O)cc2)c1OC(C)=O [Substance 17, 4-(2,3-Diacetoxy-benzoylamino)benzoic Acid] | – | – | – | 26 | – | 0 | 12 | 0 | – | – | –
O=C(NCCC[C@H](NC(=O)c1cccc(O)c1O)C(=O)O)c1cccc(O)c1O [Substance 18, L-2,5-bis-(2,3-Dihydroxybenzoylamino)-pentanoic Acid] | 50 | – | – | 30 | 17 | 20 | – | 48 | – | 18 | –
C[C@H](NC(=O)c1cccc(O)c1O)C(=O)O [Substance 19, L-2-(2,3-Dihydroxybenzoylamino)-propionic Acid] | 17 | – | – | 11 | 10 | – | – | 29 | – | 0 | –
CC(=O)Oc1cccc(C(=O)N[C@@H](C)C(=O)O)c1OC(C)=O [Substance 20, L-2-(2,3-Diacetoxybenzoylamino)-propionic Acid] | 12 | – | – | 18 | 10 | – | – | 31 | – | 0 | –
O=C(NCC[C@H](NC(=O)c1cccc(O)c1O)C(=O)O)c1cccc(O)c1O [Substance 21, L-2,4-Bis-(2,3-dihydroxybenzoylamino)-butyric Acid] | 40 | – | – | 33 | 15 | 14 | – | 36 | – | 15 | –
O=C(NCCCCC(NC(=O)c1cccc(O)c1O)C(=O)NC[C@H](NC(=O)c1cccc(O)c1O)C(=O)O)c1cccc(O)c1O (some centres unmarked) [Substance 22] | 50 | – | – | 0 | 40 | 48 | – | 50 | – | 50 | –
CC(=O)Oc1cccc(C(=O)N[C@@H](CO)C(=O)O)c1OC(C)=O [Substance 23, L-2-[2,3-Diacetoxybenzoylamino)-3-hydroxypropionic Acid] | 20 | – | – | 22 | – | – | – | 27 | – | 14 | –
O=C(NCCC[C@@H](NC(=O)c1cccc(O)c1O)C(=O)O)c1cccc(O)c1O [Substance 24, D-2,5-Bis-(2,3-dihydroxybenzoylamino)-pentanoic Acid] | 40 | – | – | 40 | 20 | 20 | – | 50 | – | 20 | –
CC(=O)Oc1cccc(C(=O)NCCCC[C@H](NC(=O)c2cccc(OC(C)=O)c2OC(C)=O)C(=O)O)c1OC(C)=O [Substance 25, 1L-2,6-Bis-(2,3-diacetoxybenzoylamino)-hexanoic Acid] | – | – | – | 30 | – | 18 | – | 28 | – | – | 38
CC(=O)Oc1cccc(C(=O)N2COC[C@H]2C(=O)O)c1OC(C)=O [Substance 26, (S)-3-(2,3-diacetoxybenzoyl)-oxazolidine-4-carboxylic Acid] | – | – | – | 14 | – | 0 | 10 | 32 | – | – | –
